Where a name gives a salt, the structure may show the parent alone. Read-outs that look alike come from different tables or passages of the source.
Tests used:
[1] = tested on: LOX (melanoma); experiment: 3H-thymidine incorporation cytotoxicity assay, LOX; type: cell-based, human; conditions: Homo sapiens, 42 h, read-out: Median IC50
Method: (§1) In vitro efficacy screening has been performed using GI147211 and liposomal formulations of GI147211. […] Standard tumor cell-based cytototoxicity assays assessing ^3H-thymidine incorporation were performed.
(§2) Tumor cells were seeded into 96-well tissue culture plates (1×10^4 cells/well)≡4 h prior to experimentation. […] Positive and negative (Tris treated) control groups were included on each assay plate. Tumor cells were then labeled with 0.25 μCi of [methyl-^3H] thymidine and incubated for 42 h under tissue culture conditions (37° C., 5% CO2, 100% relative humidity), except for C6, U251, A673 and B16-F1 cells which were incubated for 24 h. Cells were then lysed, harvested onto glass-fiber filters and unincorporated [methyl-^3H] thymidine removed by filter washing. Filters were processed for scintillation counting and cpm-^3H/well determined. […] Data are presented from multiple sets of experimentation, involving multiple liposomal formulations of GI147211.

[2] = Plasma pharmacokinetics in mice, routes of administration; type: in vivo; conditions: for Vd: read-out: Vss
Method: Pharmacokinetic studies were carried out on various liposomal formulations of GI147211 in rats and mice by IV bolus administration. Plasma samples were precipitated with acetonitrile and the supematant for each sample was analyzed by reverse phase HPLC using isocratic elution and monitoring fluorescence. […] Concentration values were determined for unknown samples and quality control samples based on interpolation using a linear fit of the standard samples. In each study the average plasma concentration at each time point was calculated and utilized in the pharmacokinetic analysis. Noncompartmental analysis were carried out using WinNonlin™ (Standard Edition, version 1.5 ©, Scientific Consulting, Inc.) and the following parameters were calculated: the maximum concentration extrapolated at zero time (Cmax), the area under the curve from zero to infinite time (AUC total), the terminal phase half life (t½), the clearance rate (C1), and the volume of distribution at steady state (Vss).
Animals received a 1 mg/kg dose by intravenous (I.V.) intraperatoneal (I.P.) or subcutaneous administration and plasma samples were collected over 24 hours.

[3] = tested on: ES2 Tumor Xenograft; experiment: Repeat dose efficacy at equal toxic doses, ES2 xenograft; conditions: ES2, 14 mg/kg, days 1, 8 and 15
Method: In all the studies performed, subcutaneous tumors implanted on the anterior flank of nude mice were allowed to grow to an established size of 200+/−50 mm^3 prior to dosing drugs.
Drugs were dosed on days 1,8 and 15.

[4] = tested on: A549 (lung carcinoma); experiment: 3H-thymidine incorporation cytotoxicity assay, A549; type: cell-based; conditions: Homo sapiens, A549, 42 h; read-out: Median IC50
Method: as §1, §2

[5] = Precipitation of GI147211 with counterion excipients (HPLC of supernatant); type: physicochemical
Method: The excipients include, but are not limited to, the acid, sodium or ammonium forms of monovalent anions such as chloride, acetate, lactobionate and formnate; divalent anions such as succinate, aspartate and sulfate; and trivalent ions such as citrate and phosphate. To assess the relative degree of precipitation brought about with each excipient, 5 mg/ml solutions of GI147211 were prepared at low pH (2±0.5) and different counterions were added. The solutions of GI147211 and counterion were allowed to stand for 15 to 20 minutes, then centrifuiged at 3600 rpm for 10 minutes to isolate the precipitate. The quantity of GI147211 remaining in solution for each sample was then assessed by assaying the supernatants using HPLC with the following conditions: C18 ODS Hypersil column from Keystone, mobile phase of 30/70 (v/v) acetonitrile/0.1% acetic acid +0.1% aqueous triethylamine buffer, pH 3.30 with LTV detection at 270 nm. The amount of GI147211 precipitated was also tabulated by the taking the difference of the concentration of the remaining soluble fraction from Smg/ml, the original GI1147211 concentration in solution. Each number is expressed in Table 6 as percentage of the original solution concentration of 5 mg/ml.
To more fully explore the concentration dependence of GI147211 precipitation, 5 mg/ml solutions of the drug were prepared as described in Example 3 and titrated with increasing concentrations of the counterion excipients sulfate, citrate, phosphate and chloride. The solutions of GI147211 and counterion were allowed to stand for 15 to 20 minutes, then centrifuged at 3600 rpm for 10 minutes to isolate the precipitate and the supernatants were assayed as described in Example 3.
In a separate study, precipitation of the camptothecin GI147211 was examined at the predicted concentration in the interior of the liposome (approx. 40 mg/ml camptothecin GI147211) after loading in the presence of 50 mM ammonium sulfate.

[6] = tested on: MDA-MB-468 (Breast); experiment: 3H-thymidine incorporation cytotoxicity assay, MDA-MB-468; type: cell-based, human; conditions: Homo sapiens, MDA-MB-468, 42 h; read-out: Median IC50
Method: as §1, §2

[7] = tested on: tumor cell; conditions: tumor cell cytotoxicity assays; cited from earlier work
[8] = tested on: MCF-7 (Breast); experiment: 3H-thymidine incorporation cytotoxicity assay, MCF-7; type: cell-based, human; conditions: Homo sapiens, MCF7; MCF-7, 42 h; read-out: Median IC50
Method: as §1, §2

[9] = tested on: BT-20 (Breast); experiment: 3H-thymidine incorporation cytotoxicity assay, BT-20; type: cell-based, human; conditions: Homo sapiens, BT-20, 42 h; read-out: Median IC50
Method: as §1, §2

[10] = tested on: DU-145 (prostate carcinoma); experiment: 3H-thymidine incorporation cytotoxicity assay, DU-145; type: cell-based, human; conditions: Homo sapiens, DU-145, 42 h; read-out: Median IC50
Method: as §1, §2

[11] = tested on: HT-29 (Colon); experiment: 3H-thymidine incorporation cytotoxicity assay, HT-29; type: cell-based, human; conditions: Homo sapiens, HT-29, 42 h; read-out: Median IC50
Method: as §1, §2

[12] = tested on: B16-F1 (Melanoma, murine); experiment: 3H-thymidine incorporation cytotoxicity assay, B16-F1; type: cell-based; conditions: Mus musculus, B16-F1, 24 h; read-out: Median IC50
Method: as §1, §2

[13] = mouse, plasma, iv, 1 mg/kg, 1 mg/kg IV bolus
[14] = mouse, plasma, iv, 1 mg/kg, I.V.
[15] = 5 mg/ml GI147211, pH 2±0.5, aspartate 50 mM
[16] = 5 mg/ml GI147211, pH 2±0.5, chloride 100 mM
[17] = 5 mg/ml GI147211, pH 2±0.5, citrate 20 mM
[18] = 5 mg/ml GI147211, pH 2±0.5, citrate 50 mM
[19] = 5 mg/ml GI147211, pH 2±0.5, formate 50 mM
[20] = 5 mg/ml GI147211, pH 2±0.5, lactobionate 50 mM
[21] = 5 mg/ml GI147211, pH 2±0.5, phosphate 100 mM
[22] = 5 mg/ml GI147211, pH 2±0.5, succinate 500 mM
[23] = 5 mg/ml GI147211, pH 2±0.5, sucrose 300 mM
[24] = 5 mg/ml GI147211, pH 2±0.5, sulfate 20 mM
[25] = 5 mg/ml GI147211, pH 2±0.5, sulfate 50 mM
[26] = approx. 40 mg/ml GI147211, 50 mM ammonium sulfate

Q: Which IC50 [1] does the source give for `CCC1(O)C(=O)OCc2c1cc1n(c2=O)Cc2c-1nc1cc3c(cc1c2CN1CCN(C)CC1)OCCO3` (stereo in doubt) [GI147211, 7-(4-methylpiperazinomethylene)-10,11-ethylenedioxy-20(S)-camptothecin dihydrochloride] here?
A: Its IC50 is 1.41 ng/mL.

Q: What about the “AUC (total)” value ([2]; 1 mg/kg IV bolus) of the same compound?
A: The value was 140 ng·h/mL.

Q: And the “AUC (total)” value ([2]; 1 mg/kg, I.P.)?
A: The value was 47 ng·h/mL.

Q: What about the “AUC (total)” value ([2]; 1 mg/kg, I.V.) of the same compound?
A: Its value is 140 ng·h/mL.

Q: And the Cmax ([2]; 1 mg/kg, I.V.)?
A: The Cmax was 80 ng/mL.

Q: What about the “AUC (total)” value ([2]; 1 mg/kg, Sub. Q) of the same compound?
A: The value was 55 ng·h/mL.

Q: What about the Cmax ([2]; mouse, plasma, 1 mg/kg IV bolus, read-out: Cmax) of the same compound?
A: The Cmax was 80 ng/mL.

Q: What about the half-life ([2]; mouse, plasma, 1 mg/kg IV bolus, read-out: t½ (converted)) of the same compound?
A: Its half-life is 113 min.

Q: And the Tmax ([2]; mouse, plasma, ip, 1 mg/kg, I.P.)?
A: The Tmax was 15 min.

Q: What about the Cmax ([2]; mouse, plasma, ip, 1 mg/kg, I.P., read-out: Cmax) of the same compound?
A: The Cmax was 56 ng/mL.

Q: What about the clearance [2, 13] of the same compound?
A: Its clearance is 122 mL/min/kg.

Q: What about the Vd [2, 13] of the same compound?
A: The Vd was 17.6 L/kg.

Q: What about the Tmax [2, 14] of the same compound?
A: The Tmax was 0 min.

Q: What about the clearance [2, 14] of the same compound?
A: Its clearance is 122 mL/min/kg.

Q: And the Vd [2, 14]?
A: Its Vd is 17.6 L/kg.

Q: And the Tmax ([2]; mouse, plasma, subcutaneous, 1 mg/kg, Sub. Q)?
A: The Tmax was 15 min.

Q: And the Cmax ([2]; mouse, plasma, subcutaneous, 1 mg/kg, Sub. Q, read-out: Cmax)?
A: Its Cmax is 42 ng/mL.

Q: What about the Cures [3] of the same compound?
A: The Cures was 1.

Q: What about the “Log Cell Kill” value [3] of the same compound?
A: Its value is 2.14.

Q: And the “Maximum Body Weight loss” value [3]?
A: The value was 9%.

Q: And the “T − C (to reach 400% tumor volume increase)” value [3]?
A: The value was 27 days.

Q: And the “Toxic Deaths” value [3]?
A: Its value is 3.

Q: And the IC50 [4]?
A: The IC50 was 6.94 ng/mL.

Q: What about the “% GI147211 Precipitated” value [5, 15] of the same compound?
A: Its value is 57.8%.

Q: And the “% GI147211 Remaining in Solution” value [5, 15]?
A: The value was 42.2%.

Q: And the “% GI147211 Precipitated” value [5, 16]?
A: The value was 85.2%.

Q: And the “% GI147211 Remaining in Solution” value [5, 16]?
A: The value was 14.8%.

Q: What about the “% GI147211 Precipitated” value [5, 17] of the same compound?
A: The value was 98.8%.

Q: And the “% GI147211 Remaining in Solution” value [5, 17]?
A: Its value is 1.2%.

Q: What about the “% GI147211 Precipitated” value [5, 18] of the same compound?
A: The value was 99.1%.

Q: What about the “% GI147211 Remaining in Solution” value [5, 18] of the same compound?
A: Its value is 0.9%.

Q: What about the “% GI147211 Precipitated” value [5, 19] of the same compound?
A: The value was 64.7%.

Q: And the “% GI147211 Remaining in Solution” value [5, 19]?
A: Its value is 35.3%.

Q: What about the “% GI147211 Precipitated” value [5, 20] of the same compound?
A: The value was 6.2%.

Q: What about the “% GI147211 Remaining in Solution” value [5, 20] of the same compound?
A: Its value is 93.8%.

Q: What about the “% GI147211 Precipitated” value [5, 21] of the same compound?
A: Its value is 82.3%.

Q: What about the “% GI147211 Remaining in Solution” value [5, 21] of the same compound?
A: The value was 17.7%.

Q: And the “% GI147211 Precipitated” value [5, 22]?
A: The value was 98.8%.

Q: What about the “% GI147211 Remaining in Solution” value [5, 22] of the same compound?
A: The value was 1.2%.

Q: And the “% GI147211 Precipitated” value [5, 23]?
A: The value was 8.2%.

Q: What about the “% GI147211 Remaining in Solution” value [5, 23] of the same compound?
A: The value was 91.8%.

Q: What about the “% GI147211 Precipitated” value [5, 24] of the same compound?
A: The value was 97.9%.

Q: And the “% GI147211 Remaining in Solution” value [5, 24]?
A: Its value is 2.1%.

Q: What about the “% GI147211 Precipitated” value [5, 25] of the same compound?
A: The value was 98.1%.

Q: What about the “% GI147211 Remaining in Solution” value [5, 25] of the same compound?
A: The value was 1.9%.

Q: What about the drug precipitated [5, 26] of the same compound?
A: The drug precipitated was ~99%.

Q: And the remained in solution [5, 26]?
A: Its remained in solution is 0.5%.

Q: And the drug precipitated ([5]; chloride and phosphate)?
A: The drug precipitated was “greater than 82%”.

Q: What about the drug precipitated ([5]; formate and aspartate) of the same compound?
A: The drug precipitated was “greater than 55%”.

Q: And the drug precipitated ([5]; sucrose and lactobionate)?
A: The drug precipitated was “less than 10%”.

Q: And the drug precipitated ([5]; sulfate, citrate, and succinate)?
A: Its drug precipitated is “greater than 97%”.

Q: What about the IC50 [6] of the same compound?
A: Its IC50 is 6.42 ng/mL.

Q: What about the “potency relative to topotecan” value [7] of the same compound?
A: The value was 5-10 times.

Q: What about the IC50 [8] of the same compound?
A: The IC50 was 44.1 ng/mL.

Q: And the IC50 [9]?
A: The IC50 was 0.0866 ng/mL.

Q: What about the IC50 [10] of the same compound?
A: The IC50 was 1.61 ng/mL.

Q: And the IC50 [11]?
A: Its IC50 is 0.763 ng/mL.

Q: And the IC50 [12]?
A: The IC50 was 111 ng/mL.

From US6740335B1, “Liposomal camptothecin formulations” (priority 1997, dated 2004)
